Patent US10391095B2, “DNA-PK inhibitors” (Vertex Pharmaceuticals Incorporated, priority 2012, dated 2019)

Target: DNA-PK (Homo sapiens, UniProt P78527)
Assay: DNA-PK inhibition assay (radiometric, 33P-ATP)
Format: biochemical
Details: 100 μM ATP, competitive tight-binding fit
In short: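 Approx. 6 nM DNA-PK with 10 µg/mL sheared dsDNA, 0.8 mg/mL peptide substrate and 100 µM 33P-ATP in HEPES pH 7.5, 10 mM MgCl2; 45 min, phosphoric acid quench. Phosphopeptide captured on filter plates and counted by scintillation; Ki from a competitive tight-binding model fit.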

SMILES | Ki [nM]
CN1CCN(c2ccc(-c3cc(NCCc4ccccc4OC4CC4)ncn3)cn2)CC1=O [Compound 142] | < 30
CNC(=O)c1ccnc2c([C@H](C)CNc3cc(-c4ccc(C)nc4)ncn3)cccc12 [Compound 476] | < 30
COc1ccccc1CCNc1cc(-c2cnc3c(cnn3C(C)C)c2)ncn1 [Compound 44] | < 30
CNC(=O)c1c(F)cnc2c([C@H](C)CNc3cc(-c4ccnc(C5CCC5)c4)ncn3)cccc12 [Compound 919] | < 30
CNC(=O)c1ccnc2c([C@H](C)CNc3cc(-c4ccc(NCCNCCO)nc4)ncn3)cccc12 [Compound 707] | < 30
CNC(=O)c1ccnc2c([C@H](C)CNc3cc(-c4ccc(NC5CC5)nc4)ncn3)ccc(F)c12 [Compound 943] | < 30
CNC(=O)c1ccc([C@H](C)CNc2cc(-c3ccc4c(c3)ncn4C)ncn2)c(OC)c1 [Compound 263] | < 30
CNC(=O)c1ccnc2c([C@H](C)CNc3cc(-c4ccnc(OC)c4)ncn3)cccc12 [Compound 869] | < 30
CNC(=O)c1ccnc2c([C@H](C)CNc3cc(-c4cnc5c(cnn5C(C)(C)C)c4)ncn3)cccc12 [Compound 619] | < 30
CC(CNc1cc(-c2cnc3c(cnn3CCO)c2)ncn1)c1ccnc2cccnc12 (centres unmarked) [Compound 400] | < 30
CNC(=O)c1ccnc2c([C@H](C)CNc3cc(-c4ccc(C(N)=O)cc4)ncn3)cccc12 [Compound 759] | < 30
Cc1ccc(-c2cc(NC[C@@H](C)c3ccnc4c3OCC4C)ncn2)cn1 (single isomer, unassigned) [Compound 576] | < 30
COC(=O)c1ccc(C(C)CNc2cc(-c3ccc(N4CCN(C(C)=O)CC4)nc3)ncn2)c(OC)c1 (centres unmarked) [Compound 116] | < 30
CNC(=O)c1ccnc2c([C@H](C)CNc3cc(-c4ccc5c(c4)CC(=O)N5C)ncn3)cccc12 [Compound 825] | < 30
CNC(=O)c1ccnc2c([C@H](C)CNc3cc(-c4cnc(NC)c(C)c4)ncn3)cccc12 [Compound 961] | < 30
CCC(CO)Nc1ccc(-c2cc(NC[C@@H](C)c3cccc4c(C(=O)NC)ccnc34)ncn2)cn1 (some centres unmarked) [Compound 724] | < 30
Cc1ncc(-c2cc(NC[C@@H](C)c3cccc4c(C(F)F)ccnc34)ncn2)cn1 [Compound 669] | < 30
COc1ccccc1[C@H](C)CNc1cc(-c2ccc(Nc3nc[nH]n3)nc2)ncn1 [Compound 198] | < 30
CNC(=O)c1ccnc2c([C@H](C)CNc3cc(-c4ccc(OC)nc4)ncn3)cccc12 [Compound 615] | < 30

SMILES | Ki [nM]
CCN1CCN(c2ccc(-c3cc(NC[C@@H](C)c4cccc5c(C(=O)NC)ccnc45)ncn3)cn2)CC1=O [Compound 716] | < 30
CNC(=O)c1ccnc2c([C@H](C)CNc3cc(-c4ccnc(N5CCOCC5)c4)ncn3)cccc12 [Compound 818] | < 30
CNC(=O)c1ccnc2c([C@H](C)CNc3cc(-c4ccc(C#N)c(F)c4)ncn3)cccc12 [Compound 871] | < 30
CNC(=O)c1ccnc2c([C@H](C)CNc3cc(-c4cnc(N)nc4)ncn3)cccc12 [Compound 608] | < 30
CNC(=O)c1ccnc2c([C@H](C)CNc3cc(-c4ccc(=O)n(C)c4)ncn3)cccc12 [Compound 655] | < 30
Cc1ccc(-c2cc(NC[C@@H](C)c3cc(C)nc4c3OCC4)ncn2)cn1 [Compound 502] | < 30
CNC(=O)c1ccc(C(C)CNc2cc(-c3cnc(C)nc3)ncn2)c(OC)c1 (centres unmarked) [Compound 193] | < 30
CNC(=O)c1ccnc2c([C@H](C)CNc3cc(-c4ccc([S+](C)[O-])cc4)ncn3)cccc12 (some centres unmarked) [Compound 677] | < 30
COc1ccccc1[C@H](C)CNc1cc(-c2ccc(N(C)C3CCN(C)CC3)nc2)ncn1 [Compound 223] | < 30
CNC(=O)c1ccnc2c([C@H](C)CNc3cc(-c4ccc(C(=O)O)s4)ncn3)cccc12 [Compound 775] | < 30
Cc1ccc(-c2cc(NC[C@@H](C)c3cccc4nccnc34)ncn2)cn1 [Compound 445] | < 30
COc1cnc(N)cc1[C@H](C)CNc1cc(-c2ccc(C)nc2)ncn1 [Compound 630] | < 30
CNC(=O)c1c(F)cnc2c([C@H](C)CNc3cc(-c4cnc(C#N)c(OC)c4)ncn3)cccc12 [Compound 918] | < 30
CNC(=O)c1ccnc2c([C@H](C)CNc3cc(-c4cnc(OC)nc4)ncn3)cccc12 [Compound 606] | < 30
CNC(=O)c1ccnc2c([C@H](C)CNc3cc(-c4ccc(NC5CCN(C)CC5)nc4)ncn3)cccc12 [Compound 635] | < 30
CNC(=O)c1ccnc2c([C@H](C)CNc3cc(-c4cncc(C#N)c4)ncn3)cccc12 [Compound 868] | < 30
Cc1ccc(-c2cc(NC[C@@H](C)c3cccc4c3OCC4)ncn2)cn1 [Compound 134] | < 30
CNC(=O)c1ccnc2c([C@H](C)CNc3cc(-c4ccc(N5CCC(C)(O)C5)nc4)ncn3)cccc12 (some centres unmarked) [Compound 732] | < 30
CNC(=O)c1ccc([C@H](C)CNc2cc(-c3ccc(N(C)CCOC)nc3)ncn2)c(OC)c1 [Compound 370] | < 30

SMILES | Ki [nM]
CC(CNc1cc(-c2cnc3c(cnn3CCO)c2)ncn1)c1ccnc2c1OCCO2 (centres unmarked) [Compound 444] | < 30
CNc1ncc(-c2cc(NC[C@@H](C)c3ccnc4cccnc34)ncn2)cn1 [Compound 497] | < 30
CNC(=O)c1ccnc2c([C@H](C)CNc3cc(-c4ccc5c(c4)CN(C(=O)COC)CC5)ncn3)cccc12 [Compound 834] | < 30
Cc1ccc(-c2cc(NCC(C)c3ccc(F)c4ccoc34)ncn2)cn1 (centres unmarked) [Compound 477] | < 30
CNC(=O)c1ccnc2c([C@H](C)CNc3cc(-c4ccc(C(O)C(C)C)nc4)ncn3)ccc(F)c12 (some centres unmarked) [Compound 926] | < 30
CNC(=O)c1ccc([C@H](C)CNc2cc(-c3ccc(NCC(F)F)nc3)ncn2)c(OC)c1 [Compound 390] | < 30
CC(=O)c1ccc(-c2cc(NC[C@@H](C)c3ccnc4c3OCC4)ncn2)cc1 [Compound 596] | < 30
CNC(=O)c1ccc([C@H](C)CNc2cc(-c3ccc(N4CC=CCC4)nc3)ncn2)c(OC)c1 [Compound 366] | < 30
CNC(=O)c1ccnc2c([C@H](C)CNc3cc(-c4cnc5c(c4)CCN5)ncn3)cccc12 [Compound 954] | < 30
CNC(=O)c1ccnc2c([C@H](C)CNc3cc(-c4cnc(CO)c(OC)c4)ncn3)ccc(F)c12 [Compound 916] | < 30
CNC(=O)c1ccnc2c([C@H](C)CNc3cc(-c4cnc(C5CC5)nc4)ncn3)cccc12 [Compound 790] | < 30
Cc1ccc(-c2cc(NCC(C)c3ccccc3OC3CCCCC3)ncn2)cn1 (centres unmarked) [Compound 183] | < 30
CNC(=O)c1ccc([C@H](C)CNc2cc(-c3ccc4c(c3)CCN4C)ncn2)c(OC)c1 [Compound 342] | < 30
CNC(=O)c1ncnc2c([C@H](C)CNc3cc(-c4cnc(C)nc4)ncn3)cccc12 [Compound 976] | < 30
CNC(=O)c1ccc(C(C)CNc2cc(-c3ccc(CCOC)cc3)ncn2)c(OC)c1 (centres unmarked) [Compound 340] | < 30
CN1CCN(c2ccc(-c3cc(NCCc4cccc5c4OCC5)ncn3)cn2)CC1 [Compound 30] | < 30
COc1cc(C=O)ccc1C(C)CNc1cc(-c2ccc(C)nc2)ncn1 (centres unmarked) [Compound 378] | < 30
Cc1ccc(-c2cc(NCC(C)c3ccnc4cccnc34)ncn2)cn1 (centres unmarked) [Compound 331] | < 30
